Experimental findings from ChEMBL document CHEMBL1131747, “Derivation of a possible transition-state for the reaction catalysed by the enzyme estrone Sulfatase (ES)” (Bioorg Med Chem Lett, 1999) are described below.

This test addresses T1, Steryl-sulfatase (Homo sapiens, UniProt P08842).
T1 sequence (P08842 whole entry): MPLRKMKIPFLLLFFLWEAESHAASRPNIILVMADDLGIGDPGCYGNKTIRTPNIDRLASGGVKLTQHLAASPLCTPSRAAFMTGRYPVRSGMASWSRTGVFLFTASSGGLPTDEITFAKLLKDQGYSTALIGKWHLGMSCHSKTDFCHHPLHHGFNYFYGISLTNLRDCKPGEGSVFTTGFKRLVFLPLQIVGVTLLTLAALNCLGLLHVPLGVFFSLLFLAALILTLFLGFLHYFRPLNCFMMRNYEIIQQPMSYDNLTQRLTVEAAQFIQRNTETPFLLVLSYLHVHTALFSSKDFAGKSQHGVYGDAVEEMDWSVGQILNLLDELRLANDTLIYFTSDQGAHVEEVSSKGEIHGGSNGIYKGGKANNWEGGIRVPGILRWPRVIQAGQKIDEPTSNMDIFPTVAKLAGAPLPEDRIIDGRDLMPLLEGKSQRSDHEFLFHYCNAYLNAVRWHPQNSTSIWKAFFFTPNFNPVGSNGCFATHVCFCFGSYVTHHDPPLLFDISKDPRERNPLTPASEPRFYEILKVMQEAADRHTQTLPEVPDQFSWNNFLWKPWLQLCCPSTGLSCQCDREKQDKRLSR
Description: Inhibitory activity against estrone sulfatase enzyme.
Take `NS(=O)(=O)Oc1ccc2c(c1)CCCC2`: the IC50 stood at 1000 nM. `CCCCCCCCCCCCCC(=O)NCCc1ccc(OS(N)(=O)=O)cc1` yielded an IC50 of 55.8 nM.

The compound `C[C@]12CC[C@@H]3c4ccc(OS(N)(=O)=O)cc4CCC3[C@@H]1CCC2=O` (single isomer, unassigned) [EMATE] yielded an IC50 of 0.065 nM.
